In ChEMBL document CHEMBL1201862, “PubChem BioAssay data set” (2004):
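Protocol summary: plate cells (96-well), add compound at 5 concentrations, incubate 48 h, interpolate endpoints linearly. Here, GI50 denotes the concentration required for 50% inhibition of growth.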 The source made the active and inactive calls. Cut-off read from the data, not from the text of the source: active = GI50 up to about 1.1 µM and inactive = higher.

Legend:
Test in all cases: inhibition of tumour cell growth, NCI panel, 48 h
SW-620 = tested on: SW-620
OVCAR-8 = tested on: OVCAR-8
MOLT-4 = tested on: MOLT-4
SN12C = tested on: SN12C
KM12 = tested on: KM12
IGROV-1 = tested on: IGROV-1
SNB-19 = tested on: SNB-19
SNB-75 = tested on: SNB-75
MDA-MB-231 = tested on: MDA-MB-231
SR = tested on: SR
NCI/ADR-RES = tested on: NCI/ADR-RES
TK-10 = tested on: TK-10
A549 = tested on: A549
M14 = tested on: M14
SK-MEL-28 = tested on: SK-MEL-28
MDA-MB-435 = tested on: MDA-MB-435
HT-29 = tested on: HT-29
SF-539 = tested on: SF-539
NCI-H23 = tested on: NCI-H23
HOP-92 = tested on: HOP-92

Measured: GI50

COC(=O)c1c(C)c2c(c(C)c1C(=O)OC)-c1c(C)ccc3ccc(C)c-2c13
inactive: SW-620 32.9 µM | OVCAR-8 47.1 µM | MOLT-4 14.4 µM | SN12C > 93.8 µM | KM12 9.38 µM | IGROV-1 54 µM | SNB-19 > 87.5 µM | SNB-75 27.8 µM | MDA-MB-231 3.94 µM | SR 6.78 µM | NCI/ADR-RES 26.7 µM | TK-10 > 65.8 µM | A549 37.9 µM | M14 21 µM | SK-MEL-28 68.2 µM | MDA-MB-435 > 83 µM | HT-29 7.82 µM | SF-539 51.5 µM

CC[N+]1(C)CCC(O)(/C=C/c2ccc(Cl)c(Cl)c2)C(C(=O)/C=C/c2ccc(Cl)c(Cl)c2)C1 (centres undefined)
active: SR 0.406 µM
inactive: SW-620 1.91 µM | OVCAR-8 2.55 µM | NCI-H23 2.57 µM | MOLT-4 2.28 µM | SN12C 1.88 µM | KM12 1.88 µM | IGROV-1 2.96 µM | SNB-19 6.11 µM | SNB-75 3.78 µM | HOP-92 1.7 µM | NCI/ADR-RES 2.51 µM | TK-10 2.43 µM | A549 4.41 µM | SK-MEL-28 2.15 µM | MDA-MB-435 2.12 µM | HT-29 2.07 µM | SF-539 3.03 µM

O=c1c(-c2ccc3c(c2)OCO3)coc2c3c(ccc12)OCO3
inactive: SW-620 39.7 µM | NCI-H23 19.2 µM | MOLT-4 > 100 µM | SN12C 41.8 µM | KM12 30.8 µM | IGROV-1 20.8 µM | SNB-19 21.4 µM | SNB-75 23 µM | HOP-92 18 µM | MDA-MB-231 21.5 µM | SR 40 µM | TK-10 19.1 µM | A549 49.9 µM | M14 30 µM | SK-MEL-28 24.3 µM | MDA-MB-435 > 100 µM | SF-539 20 µM

O=CN/C=C/c1cc(O)ccc1O [ERBSTATIN]
inactive: SW-620 8.75 µM | OVCAR-8 17.8 µM | NCI-H23 18.8 µM | MOLT-4 22.9 µM | SN12C 16.7 µM | KM12 > 89.3 µM | IGROV-1 26.2 µM | SNB-19 > 66.7 µM | SNB-75 62.4 µM | HOP-92 11.6 µM | SR 4.39 µM | NCI/ADR-RES 18.1 µM | TK-10 17 µM | A549 > 65.6 µM | M14 14.9 µM | SK-MEL-28 23.4 µM | HT-29 22.2 µM | SF-539 22.7 µM

OC1CSCCCSCCSCCCSC1
inactive: SW-620 > 100 µM | OVCAR-8 > 100 µM | NCI-H23 > 100 µM | MOLT-4 12.1 µM | SN12C > 100 µM | IGROV-1 > 100 µM | SNB-19 > 100 µM | SNB-75 > 100 µM | HOP-92 > 100 µM | MDA-MB-231 > 100 µM | TK-10 > 100 µM | A549 > 100 µM | M14 > 100 µM | SK-MEL-28 > 100 µM | MDA-MB-435 > 100 µM | HT-29 > 100 µM | SF-539 > 100 µM

O=c1cc2oc3ccc4ccccc4c3cc-2c(=O)[nH]1
inactive: SW-620 1.87 µM | OVCAR-8 1.56 µM | NCI-H23 1.42 µM | MOLT-4 2.25 µM | KM12 20 µM | IGROV-1 14.2 µM | SNB-19 14 µM | SR 2.62 µM | NCI/ADR-RES 17.5 µM | A549 21 µM | M14 18.2 µM | SK-MEL-28 17.9 µM | MDA-MB-435 11 µM | HT-29 16 µM | SF-539 9.79 µM

Nc1cc2ncnn2c(SCC(=O)N/N=C/C(Br)=C\c2ccccc2)n1
inactive: SW-620 16.4 µM | OVCAR-8 15.9 µM | NCI-H23 10.8 µM | MOLT-4 12.4 µM | SN12C 17.3 µM | KM12 17.9 µM | IGROV-1 11.5 µM | SNB-19 31 µM | SNB-75 20.1 µM | MDA-MB-231 15.5 µM | SR 10.6 µM | NCI/ADR-RES 25.5 µM | TK-10 31.8 µM | A549 16.3 µM | SK-MEL-28 16 µM | MDA-MB-435 15 µM | HT-29 14.8 µM | SF-539 16.7 µM

CC(=O)O.CN1CCN(CN2C(=O)C3C4C=CC(C3C2=O)C2C3C(=O)N(CN5CCN(C)CC5)C(=O)C3C42)CC1 (centres undefined)
inactive: SW-620 22.2 µM | OVCAR-8 27.8 µM | NCI-H23 20.7 µM | MOLT-4 20.2 µM | SN12C 21.4 µM | KM12 22.3 µM | IGROV-1 35.5 µM | SNB-75 23.3 µM | MDA-MB-231 24.4 µM | SR 13.4 µM | NCI/ADR-RES 24.2 µM | TK-10 45.3 µM | A549 22 µM | M14 18.9 µM | SK-MEL-28 28 µM | MDA-MB-435 17.1 µM | HT-29 25.3 µM | SF-539 21.1 µM
